Consider 19 molecules from PubChem BioAssay AID330 (DTP/NCI, 2004).

This assay deals with P388 leukemia ip, CD2F1 mice, survival T/C. The experiment in a line: NCI In Vivo Anticancer Drug Screen. Data for tumor model P388 Leukemia (intraperitoneal) in CD2F1 (CDF1) mice. Particulars: endpoint: median survival time, higher = longer survival. The procedure, abridged: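 Mice carrying the transplanted tumor received test compound or vehicle. Survival was recorded in each group, and the value is the treated-group measurement divided by that of the vehicle-treated control group.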

Setting [1] is: dose: 50.0 mg/kg/injection, schedule: Q01DX009 (ip), vehicle: saline with Tween-80.
Setting [2] is: dose: 50.0 mg/kg/injection, schedule: Q01DX009 (ip), vehicle: saline.
Setting [3] is: dose: 100.0 mg/kg/injection, schedule: Q01DX009 (ip), vehicle: saline with Tween-80.
[4] abbreviates: dose: 50.0 mg/kg/injection, schedule: Q01DX005 (ip), vehicle: saline.
Setting [5] is: dose: 100.0 mg/kg/injection, schedule: Q01DX005 (ip), vehicle: saline.
The mark [6] stands for this setting: dose: 100.0 mg/kg/injection, schedule: Q01DX009 (ip), vehicle: saline.
Where [7] appears, read: dose: 200.0 mg/kg/injection, schedule: Q01DX005 (ip), vehicle: saline.
Setting [8] is: dose: 200.0 mg/kg/injection, schedule: Q01DX009 (ip), vehicle: saline.
Setting [9] is: dose: 50.0 mg/kg/injection, schedule: Q01DX005 (ip), vehicle: saline with Tween-80.
[10] abbreviates: dose: 100.0 mg/kg/injection, schedule: Q01DX005 (ip), vehicle: saline with Tween-80.
Setting [11] is: dose: 200.0 mg/kg/injection, schedule: Q01DX005 (ip), vehicle: saline with Tween-80.
Setting [12] is: dose: 100.0 mg/kg/injection, schedule: Q04DX002 (ip), vehicle: saline with Tween-80.

Values joined by “and” are separate entries in the source; they are usually repeats but may differ in a detail not shown here. Identical values can stand only once. Toxic doses and inconclusive results are not listed.

Consider `NC(=S)N/N=C\c1nccc2c(N)cccc12`, for which the T/C is, setting by setting: (dose: 3.13 mg/kg/injection, schedule: Q01DX009 (ip), vehicle: saline) 161 % of control; (dose: 6.25 mg/kg/injection, schedule: Q01DX009 (ip), vehicle: saline with Tween-80) 153 % of control; (dose: 6.25 mg/kg/injection, schedule: Q01DX009 (ip), vehicle: saline) 161 % of control; (dose: 12.5 mg/kg/injection, schedule: Q01DX009 (ip), vehicle: saline with Tween-80) 162 % of control; (dose: 12.5 mg/kg/injection, schedule: Q01DX009 (ip), vehicle: saline) 150 % of control and 166 % of control; (dose: 18.8 mg/kg/injection, schedule: Q04DX003 (ip), vehicle: saline) 155 % of control. Besides, the T/C (dose: 25.0 mg/kg/injection, schedule: Q01DX009 (ip), vehicle: saline) was 167 % of control; the T/C under setting [1] was 152 % of control and 155 % of control; the T/C under setting [2] was 168 % of control and 181 % of control; the T/C (dose: 75.0 mg/kg/injection, schedule: Q01DX009 (ip), vehicle: saline with Tween-80) is 150 % of control; the T/C (dose: 75.0 mg/kg/injection, schedule: Q04DX003 (ip), vehicle: saline) is 155 % of control; the T/C (dose: 150.0 mg/kg/injection, schedule: Q04DX003 (ip), vehicle: saline) is 172 % of control.
`O=C1NC(=O)C2(CCCc3c([N+](=O)[O-])cccc32)N1` (centres undefined): the T/C reads like this: under setting [1], 97 % of control; under setting [3], 93 % of control; (dose: 200.0 mg/kg/injection, schedule: Q01DX009 (ip), vehicle: saline with Tween-80) 90 % of control.
`NCCCC(N)(C(=O)O)C(F)F` (centres undefined): the T/C under setting [4] is 106 % of control; the T/C (dose: 50.0 mg/kg/injection, schedule: Q01DX009 (ip), vehicle: distilled water + alcohol) was 112 % of control; the T/C under setting [2] was 87 % of control; the T/C under setting [5] was 103 % of control; the T/C (dose: 100.0 mg/kg/injection, schedule: Q01DX009 (ip), vehicle: distilled water + alcohol) was 112 % of control; the T/C under setting [6] is 103 % of control. Moreover, the T/C runs as follows: under setting [7], 103 % of control; (dose: 200.0 mg/kg/injection, schedule: Q01DX009 (ip), vehicle: distilled water + alcohol) 115 % of control; under setting [8], 110 % of control; (dose: 400.0 mg/kg/injection, schedule: Q01DX009 (ip), vehicle: distilled water + alcohol) 119 % of control; (dose: 800.0 mg/kg/injection, schedule: Q01DX009 (ip), vehicle: distilled water + alcohol) 111 % of control.
Turning to `C[N+](C)(C)CCC(=O)c1ccc([N+](=O)[O-])cc1`, the T/C is 109 % of control under setting [2] and 118 % of control under setting [6].
`COc1ccc(C2=NN(c3ccccc3)C(=O)/C2=C(/SC)N2CC2)cc1`: the T/C was 99 % of control (dose: 100.0 mg/kg/injection, schedule: Q04DX003 (ip), vehicle: Klucel (hydroxypropylcellulose) (HPC)); 91 % of control (dose: 200.0 mg/kg/injection, schedule: Q04DX003 (ip), vehicle: Klucel (hydroxypropylcellulose) (HPC)); 102 % of control (dose: 400.0 mg/kg/injection, schedule: Q04DX003 (ip), vehicle: Klucel (hydroxypropylcellulose) (HPC)).
Turning to `CC[C@]12C=CCN3CC[C@@]4(c5ccc(OC)cc5N(C)[C@H]4[C@@](O)(C(=O)OC)[C@@H]1OC(C)=O)[C@@H]32`, the T/C (dose: 50.0 mg/kg/injection, schedule: Q01DX005 (ip), vehicle: Klucel (hydroxypropylcellulose) (HPC)) was 98 % of control and the T/C (dose: 100.0 mg/kg/injection, schedule: Q01DX005 (ip), vehicle: Klucel (hydroxypropylcellulose) (HPC)) is 97 % of control.
With `CCOC(=O)c1c(C(C)=O)cnc2c(C#N)cnn12`, the T/C was 98 % of control under setting [9], 98 % of control under setting [10] and 91 % of control under setting [11].
On to `C(#Cc1ccccc1)/C=C/C(=C\c1ccccc1)c1ccccc1`, for which the T/C is, setting by setting: (dose: 12.5 mg/kg/injection, schedule: Q01DX005 (ip), vehicle: saline with Tween-80) 101 % of control; (dose: 25.0 mg/kg/injection, schedule: Q01DX005 (ip), vehicle: saline with Tween-80) 102 % of control; under setting [9], 101 % of control; under setting [10], 100 % of control.
On to `CN1CC(C(N)=O)=CC(C(N)=O)C1` (centres undefined), for which the T/C was 97 % of control (dose: 25.0 mg/kg/injection, schedule: Q01DX005 (ip), vehicle: saline); 96 % of control under setting [4]; 113 % of control under setting [5]; 111 % of control under setting [7].
Take `CC(=O)[C@@]1(O)CC[C@H]2[C@@H]3C[C@H](C)C4=CC(=O)CC[C@]4(C)[C@H]3[C@@H](O)C[C@@]21C`: the T/C runs as follows: (dose: 66.0 mg/kg/injection, schedule: Q01DX009 (ip), vehicle: saline with Tween-80) 100 % of control; under setting [3], 100 % of control; (dose: 150.0 mg/kg/injection, schedule: Q01DX009 (ip), vehicle: saline with Tween-80) 104 % of control.
Take `O=C(O)c1c(Cl)c(Cl)c(Cl)c(Cl)c1-c1c2ccc(=O)cc-2oc2cc(O)ccc12`: the T/C was 100 % of control (dose: 60.0 mg/kg/injection, schedule: Q01DX005 (ip), vehicle: saline with Tween-80); 100 % of control (dose: 120.0 mg/kg/injection, schedule: Q01DX005 (ip), vehicle: saline with Tween-80); 96 % of control (dose: 240.0 mg/kg/injection, schedule: Q01DX005 (ip), vehicle: saline with Tween-80).
Consider `COc1cc2c(OC)c(c1)CCc1cc(OC)c(cc1OC)CC2`, for which the T/C runs as follows: under setting [9], 97 % of control; under setting [10], 97 % of control; under setting [11], 94 % of control.
Take `Cc1ccc(S(=O)(=O)NC(=O)ON2CCCCC2)cc1`: the T/C is, setting by setting: (dose: 50.0 mg/kg/injection, schedule: Q01DX009 (ip), vehicle: saline + Tween-80 + alcohol) 95 % of control; (dose: 100.0 mg/kg/injection, schedule: Q01DX009 (ip), vehicle: saline + Tween-80 + alcohol) 95 % of control; (dose: 200.0 mg/kg/injection, schedule: Q01DX009 (ip), vehicle: saline + Tween-80 + alcohol) 92 % of control.
Consider `OC1(c2ccncc2)C=CCC1` (centres undefined), for which, under setting [12], the T/C was 95 % of control.
`O=C(O)CC[P+](c1ccccc1)(c1ccccc1)c1ccccc1`: the T/C is, setting by setting: (dose: 25.0 mg/kg/injection, schedule: Q01DX009 (ip), vehicle: water) 105 % of control; (dose: 50.0 mg/kg/injection, schedule: Q01DX009 (ip), vehicle: water) 102 % of control; (dose: 100.0 mg/kg/injection, schedule: Q01DX009 (ip), vehicle: water) 105 % of control; (dose: 200.0 mg/kg/injection, schedule: Q01DX009 (ip), vehicle: water) 95 % of control; (dose: 400.0 mg/kg/injection, schedule: Q01DX009 (ip), vehicle: water) 94 % of control.
Take `O=[N+]([O-])c1ccc(N=Nc2ccc(N(CCO)CCO)cc2)cc1`: the T/C runs as follows: (dose: 60.0 mg/kg/injection, schedule: Q01DX005 (ip), vehicle: suspension in saline) 95 % of control; (dose: 120.0 mg/kg/injection, schedule: Q01DX005 (ip), vehicle: suspension in saline) 97 % of control; (dose: 240.0 mg/kg/injection, schedule: Q01DX005 (ip), vehicle: suspension in saline) 98 % of control.
Take `COc1cc(OC)cc(C(C)(C)C)c1`: the T/C runs as follows: under setting [2], 97 % of control; under setting [6], 100 % of control; under setting [8], 107 % of control.
Turning to `CCCCC1(C)OC(C)CC(C)O1` (centres undefined), the T/C reads like this: (dose: 60.0 mg/kg/injection, schedule: Q01DX005 (ip), vehicle: saline) 97 % of control; (dose: 120.0 mg/kg/injection, schedule: Q01DX005 (ip), vehicle: saline) 99 % of control; (dose: 240.0 mg/kg/injection, schedule: Q01DX005 (ip), vehicle: saline) 108 % of control.
For the molecule `COC(=O)C1C(=O)OC(C(C)(C)Cl)C1C(=O)OC` (centres undefined), the T/C runs as follows: under setting [12], 99 % of control; (dose: 200.0 mg/kg/injection, schedule: Q04DX002 (ip), vehicle: saline with Tween-80) 98 % of control; (dose: 400.0 mg/kg/injection, schedule: Q04DX002 (ip), vehicle: saline with Tween-80) 101 % of control.
